Results on two molecules are retold here after PMC6325219, “Preclinical Characterization of NVR 3-778, a First-in-Class Capsid Assembly Modulator against Hepatitis B Virus” (Antimicrobial Agents and Chemotherapy, 2018).

Data set [1] relates to HBV core protein variant I105V. The data set can be described thus: Transient-transfection antiviral study in HepG2 cells, core variant I105V. To be noted: for EC50 FC, I105V: ratio of mean EC50 for core variant over wild-type HBV. The class given is cell-based, hepatitis B virus.
Method: Cells were cotransfected with the HBV plasmids (100 ng/well) and a Gaussia expression plasmid (10 ng/well) (Thermo Scientific) using the Lipofectamine LTX Plus transfection reagent (Life Technologies). Transfection mixtures were removed after overnight incubation, and cells were treated with serially diluted NVR 3-778 at a final dimethyl sulfoxide (DMSO) concentration of 0.5%. After 3 days of incubation with the compound, the supernatants were collected and secreted Gaussia luciferase was measured using a Gaussia Flash luciferase assay kit (Thermo Scientific). […] Samples were diluted into lysis buffer (Affymetrix) containing 2.5 µg proteinase K (Affymetrix) at 50°C for 40 min. Intracellular encapsidated HBV DNA was denatured for 30 min at 25°C in 0.2 M NaOH (Sigma) and incubated with HBV DNA probes designed to hybridize to the minus-strand HBV DNA (Affymetrix). The denatured DNA was subsequently detected using a QuantiGene assay kit, according to the branched DNA (bDNA) assay recommended by the manufacturer (Affymetrix).
A further data set has as its system HBV. The data set can be described thus: De novo infection study using PHH. Type of data set: cell-based. To be noted: Hepatitis B virus. The method, then:
Cryopreserved PHH (Life Technologies) were seeded at 40,000 cells/well 1 day before infection. The HBV inoculum, concentrated from the supernatants of HepG2.2.15 cells, was prepared at 200 genome equivalents/cell in PHH medium (DMEM containing 10% FBS and a supplement cocktail containing HEPES, L-proline, insulin epidermal growth factor, dexamethasone, and ascorbic acid-2-phosphate, as previously described) with 2% DMSO and 4% polyethylene glycol (PEG) 8000 (Sigma). Compounds were serially diluted in DMSO at 50-fold strength and added to PHH medium containing the HBV inoculum, prior to infecting the PHH. After overnight incubation, the infection mixtures were removed and the cells were replenished with PHH medium containing freshly diluted compounds. On day 5 and day 8 postinfection, the media containing the compounds were removed and the cells were replenished with PHH medium containing freshly diluted compounds. Supernatants and cells were harvested for antiviral and viability assays on day 11 postinfection. HBV DNA, HBsAg, and HBeAg were determined from the supernatants of infected PHH using bDNA assays (Affymetrix) and HBsAg or HBeAg chemiluminescence immunoassay kits (Autobio), as recommended by the manufacturers. Intracellular total HBV RNA mRNA and host mRNA levels were monitored by using the QuantiGene assays (Affymetrix) and probe sets that hybridized to the X region, which is common to all HBV transcripts, and the host β-actin mRNA, respectively.

The test system of data set [2] is HBV rtL180M/M204V variant. The data set can be described thus: microbe, parasite or virus in culture. Type of data set: cell-based, hepatitis B virus. The source says: (§1) Plasmids containing HBV DNA with rtN236T, rtA181V, rtA181V/N236T, and rtL180M/M204V/N236T were generated using the GT B WT or rtL180M/M204V DNA-containing plasmids and site-directed mutagenesis (Agilent Technologies). A panel of nine different HBV core variants (cW102G, cW102R, cI105V, cI105L, cI105T, cT109S, cT109M, cT109I, and cY118F) was generated, also using the GT B WT DNA-containing plasmid and site-directed mutagenesis. The full-length genome from all plasmids was sequenced to confirm that only the intended nucleotide change(s) was present. Finally, HBV sequences from genotypes A (GenBank accession number AF305422), C (GenBank accession number AB033550), D (GenBank accession number V01460), E (GenBank accession number AB274971), F (GenBank accession number AB036912), G (GenBank accession number AF160501), and H (GenBank accession number AB375159) were gene synthesized as 1.1 times the genome length together with part of the CMV promoter at the 5′ end. The gene-synthesized piece was validated by sequencing and subcloned into the pCMV-HBV plasmid using the restriction sites SalI and NdeI (Genewiz, USA).
(§2) HepG2 cells were seeded in 96-well plates at a density of 20,000 cells/well and allowed to attach overnight at 37°C in 5% CO2. Cells were cotransfected with the HBV plasmids (100 ng/well) and a Gaussia expression plasmid (10 ng/well) (Thermo Scientific) using the Lipofectamine LTX Plus transfection reagent (Life Technologies). Transfection mixtures were removed after overnight incubation, and cells were treated with serially diluted NVR 3-778 at a final dimethyl sulfoxide (DMSO) concentration of 0.5%. After 3 days of incubation with the compound, the supernatants were collected and secreted Gaussia luciferase was measured using a Gaussia Flash luciferase assay kit (Thermo Scientific). Cells were lysed with 0.33% NP-40 (Thermo Scientific), and the cytoplasmic fractions were treated with 2 units of Turbo DNase (Invitrogen) and 10 units of S7 nuclease (Roche) in CutSmart buffer (New England Biolabs) containing 25 µM CaCl2 (G-Biosciences) at 37°C for 60 min, followed by inactivation of the enzymes at 75°C for 15 min. Samples were diluted into lysis buffer (Affymetrix) containing 2.5 µg proteinase K (Affymetrix) at 50°C for 40 min. Intracellular encapsidated HBV DNA was denatured for 30 min at 25°C in 0.2 M NaOH (Sigma) and incubated with HBV DNA probes designed to hybridize to the minus-strand HBV DNA (Affymetrix). The denatured DNA was subsequently detected using a QuantiGene assay kit, according to the branched DNA (bDNA) assay recommended by the manufacturer (Affymetrix).
(§3) To determine percent inhibition, the mean background signal from wells containing only culture medium was subtracted from the signal for all other samples, and percent inhibition at each compound concentration was calculated by normalization to the signals for HepG2.2.15 cells treated with 0.5% DMSO. […] Both CalcuSyn and MacSynergy II (Ann Arbor, MI) software were used to evaluate the effect of compound combinations ([27]). After data analysis at the 95% confidence level, values of synergy or antagonism of <25 µM^2% were defined as insignificant, those between 25 and 50 µM^2% were defined as minor, those between 50 and 100 µM^2% were defined as moderate, and those of >100 µM^2% were defined as strong.

For data set [3], the system named is HBV rtL180M/M204V/N236T variant. The data set can be described thus: microbe, parasite or virus in culture. Type of data set: cell-based, hepatitis B virus.
Source text: as §1, §2, §3

The nature of data set [4]: Cell viability of HepG2.2.15 cells (ATP levels, CellTiter-Glo). Type of data set: cell-based. The following applies: human, HepG2.2.15 cells, ATP levels, CellTiter-Glo. The method, then:
In combination studies, cells were treated with compounds either alone or in combination after combining the compounds in a checkerboard format. In studies examining the effect of human serum, serially diluted NVR 3-778 was added into cell culture medium containing 0% to 40% human serum (BioreclamationIVT). Cells were incubated with the compounds for 3 days, after which the medium was removed, fresh medium containing the compounds was added to the cells, and the cells were incubated for another 3 days prior to harvesting of the supernatants or cells for antiviral assays. To quantify intracellular encapsidated rcDNA or encapsidated pgRNA, cells were first solubilized using lysis buffer containing 1% NP-40 and 10 mM CaCl2. The cytoplasmic fraction was then treated with S7 nuclease (6 units) to remove nonencapsidated nucleic acids, after which the S7 nuclease was inactivated by the addition of EDTA (0.5 M). […] The levels of HBV DNA were determined by a bDNA assay as described above (Affymetrix). Supernatants or cell lysates containing HBV RNA were treated with proteinase K (2.5 µg) at 50°C for 40 min, transferred to a capture plate containing HBV RNA probe sets, and hybridized overnight at 55°C. Captured HBV RNA was measured by the addition of a chemiluminescent substrate using a QuantiGene assay (Affymetrix). […] At day 6, the CellTiter-Glo reagent was added to the cells and viability was determined according to the manufacturer’s protocol (Promega). Luminescence signals were measured at 0.2 s using a Victor X4 multimode plate reader (PerkinElmer).
For orientation: In ATP-based viability assays light output follows the ATP content of the culture.

Where [5] appears, read: 264 h, PHH from three donors, compound added with inoculum, 11 days, read-out: EC50, HBV DNA.
The mark [6] stands for this setting: 264 h, PHH from three donors, compound added with inoculum, 11 days, read-out: EC50, HBeAg.
[7] abbreviates: 264 h, PHH from three donors, compound added with inoculum, 11 days, read-out: EC50, HBsAg.
Where [8] appears, read: 264 h, PHH from three donors, compound added with inoculum, 11 days, read-out: EC50, intracellular HBV RNA.
Where [9] appears, read: 264 h, PHH from three donors, compound added with inoculum, 11 days, read-out: EC90, HBV DNA.
Where [10] appears, read: 264 h, PHH from three donors, compound added with inoculum, 11 days, read-out: EC90, HBeAg.
[11] abbreviates: 264 h, PHH from three donors, compound added with inoculum, 11 days, read-out: EC90, HBsAg.
Setting [12] is: 264 h, PHH from three donors, compound added with inoculum, 11 days, read-out: EC90, intracellular HBV RNA.
Setting [13] is: ratio of mean EC50 against variant over WT HBV, HepG2 cells.

In general, EC90 refers to the point of the concentration-response curve where the effect stands at 90%. The CC50 is the concentration at which the toxic effect on the cells reaches its halfway point.

Where two headings read alike, the source gives them in different places. Marks after values point to notes of the source that are not given here. Where only a bound is given, the exact number is not on record here.

Turning to `Nc1ccn([C@@H]2CS[C@H](CO)O2)c(=O)n1` [LMV, lamivudine, reference compound], the “EC50 FC, I105V” value in data set [1] is 0.84 fold. The EC50 in the data set with HBV (setting [5]) is 0.016 ± 0.01 µM; in the data set on HBV (setting [6]), more than 30 µM; in the data set with HBV (setting [7]) it was more than 30 µM; in the data set on HBV (setting [8]), more than 30 µM; in data set [2] (Hepatitis B virus, HepG2, read-out: EC50 (mean), rtL180M/M204V variant), more than 100 µM; in data set [3] (Hepatitis B virus, HepG2, read-out: EC50, rtL180M/M204V/N236T variant) it was more than 100 µM. The concentration for an effect of 90% (EC90) with HBV (setting [9]) was 0.066 ± 0.01 µM; in the data set on HBV (setting [10]), more than 30 µM; in the data set on HBV (setting [11]), more than 30 µM; in the data set with HBV (setting [12]), more than 30 µM.
Turning to `O=C(Nc1cc(F)c(F)c(F)c1)c1ccc(F)c(S(=O)(=O)N2CCC(O)CC2)c1` [NVR 3-778], the EC50 in data set [1] (Hepatitis B virus, HepG2, read-out: EC50, core variant I105V) is 0.41 ± 0.11 µM; in the data set with HBV (setting [5]), 0.81 ± 0.18 µM; in the data set on HBV (setting [6]), 4.5 ± 0.82 µM; in the data set on HBV (setting [7]) it was 4.8 ± 0.98 µM; with HBV (setting [8]), 3.7 ± 0.22 µM; in the data set on HBV (PHH, de novo infection, range over HBsAg, HBeAg, HBV RNA, read-out: EC50 values against the production of HBV antigens and intracellular HBV RNA), 3.7 to 4.8 µM. For the same molecule, the “EC50 FC, I105V” value in data set [1] is 1.8 fold. Besides, in data set [4], the half-maximal cytotoxic concentration (CC50) at 6 days came out at 14.5 µM. For the same molecule, the EC90 in the data set on HBV (setting [9]) is 5.4 ± 2 µM; with HBV (setting [10]), 8.9 ± 1.2 µM; in the data set with HBV (setting [11]), 10.2 ± 3 µM; with HBV (setting [12]), 11.6 ± 2.7 µM. In addition, the “EC50 fold change, rtL180M/M204V” value in data set [2] (setting [13]) was 1.3 ± 0.6^d fold. Also, the “EC50 fold change, rtL180M/M204V/N236T” value in data set [3] (setting [13]) is given as 1.4 ± 0.5^d fold.
